From the NIST ThermoML archive (doi:10.1021/je700140j)

Assay: xn = mol fraction of the nth substance listed
Settings: for surface tension liquid-gas: Ring tensiometer; for mass density / viscosity: 100.8 kPa, Liquid

OCc1ccccc1 [benzenemethanol] + CC(C)O
Settings	mass density, 298.15 K [kg/m3]	mass density, 308.15 K [kg/m3]	mass density, 318.15 K [kg/m3]	surface tension liquid-gas, 298.15 K [mN/m]	surface tension liquid-gas, 308.15 K [mN/m]	surface tension liquid-gas, 318.15 K [mN/m]	viscosity, 298.15 K [mPa·s]	viscosity, 308.15 K [mPa·s]	viscosity, 318.15 K [mPa·s]
x2 = 0	1041.4	1033.6	1025.72	38.63	37.73	36.75	5.555	4.093	3.12
x2 = 0.05	1032.82	1025.02	1017.09	37.5	36.66	35.75	5.299	3.91	2.989
x2 = 0.1	1023.74	1015.91	1007.96	36.4	35.63	34.76	5.053	3.73	2.864
x2 = 0.15	1014.27	1006.4	998.38	35.35	34.6	33.77	4.799	3.558	2.745
x2 = 0.2	1004.39	996.5	988.43	34.3	33.59	32.78	4.559	3.389	2.628
x2 = 0.25	994.22	986.26	978.11	33.27	32.58	31.81	4.332	3.23	2.513
x2 = 0.3	983.63	975.59	967.39	32.27	31.58	30.83	4.116	3.076	2.4
x2 = 0.35	972.64	964.56	956.29	31.27	30.58	29.85	3.911	2.921	2.285
x2 = 0.4	961.2	953.08	944.75	30.3	29.6	28.9	3.714	2.772	2.172
x2 = 0.45	949.36	941.19	932.79	29.36	28.66	27.95	3.523	2.631	2.059
x2 = 0.5	937.02	928.79	920.32	28.45	27.75	27.05	3.335	2.49	1.953
x2 = 0.55	924.21	915.93	907.36	27.63	26.93	26.25	3.169	2.37	1.858
x2 = 0.6	910.83	902.49	893.86	26.83	26.15	25.48	3.01	2.256	1.769
x2 = 0.65	896.91	888.53	879.84	26.05	25.38	24.73	2.858	2.145	1.68
x2 = 0.7	882.44	874.02	865.32	25.28	24.61	23.98	2.715	2.042	1.594
x2 = 0.75	867.32	858.91	850.19	24.53	23.85	23.23	2.58	1.946	1.511
x2 = 0.8	851.54	843.1	834.29	23.78	23.1	22.48	2.46	1.851	1.434
x2 = 0.85	835.11	826.58	817.75	23.05	22.35	21.73	2.346	1.761	1.359
x2 = 0.9	817.95	809.39	800.5	22.33	21.6	20.96	2.251	1.675	1.295
x2 = 0.95	800	791.45	782.46	21.61	20.85	20.19	2.148	1.602	1.228
